Patent US20190308956A1, “PIPERAZINE DERIVATIVES AS ANTIVIRAL AGENTS WITH INCREASED THERAPEUTIC ACTIVITY” (SERVICIO ANDALUZ DE SALUD, priority 2016, published 2019)
Like-named read-outs stand apart in the source and are kept apart here.

Legend:
A549 cells = assay: Cytotoxicity assay (alamarBlue cell viability); format: cell-based, Human
Procedure, shortened: (§1)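 Actively dividing A549 cells exposed to compounds for 48 h, then alamarBlue (1/10th in culture medium) added for a further 4 h. CC50 taken as concentration giving 50% cytotoxicity; selectivity index = CC50/IC50, with IC50 from HAdV infection inhibition.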

[1] = Cytotoxicity assay (alamarBlue cell viability); format: cell-based, Human; conditions: human, A549 cells, 48 h
Procedure, shortened: as §1

HAdV5-GFP [2] = assay: Plaque assay, HAdV5-GFP in 293β5 cells; format: cell-based; conditions: for Selectivity Index (SI) HAdV5: ratio CC50 to IC50, HAdV5; for IC50: read-out: IC50 HAdV5; for inhibition at 10 µM: read-out: Percentage of plaque formation inhibition, HAdV5-GFP, 10 μM, 293β5 cell line
Procedure, shortened: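 293β5 cells infected with HAdV5-GFP at 0.06 vp/cell for 2 h at 37° C. Then overlaid with agar/EMEM containing compound (5 to 1 μM stated range; screen run at 10 μM). After 7 days at 37° C., GFP plaques imaged and counted relative to DMSO control.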

HCMV (AD169) = assay: HCMV infectivity assay by quantitative PCR; format: cell-based, human cytomegalovirus; conditions: Human betaherpesvirus 5, AD169, MRC5, MRC-5 cells, 72 h, qPCR, read-out: Inhibition of HCMV DNA replication
Protocol: 1.9. HCMV infectivity assay by quantitative PCR. […] After 72 h of incubation at 37° C., DNA was purified from the cell lysate with the QlAamp DNA Mini Kit (QIAGEN, Valencia, Calif.) following the manufacturer's instructions. TaqMan primers and probes for a region of the US28 gene were designed with the GenScript Real-time PCR (TaqMan) Primer Design software (GenScript). Oligonucleotides sequences were CMV-F: 5′-[…]-3′; CMV-R: 5′-[…]-3′; and CMV-Probe: 5′-[…]-3′. Real-time PCR mixtures consisted of 10 μl the purified DNA, CMV-F at a concentration of 100 nM, CMV-R at a concentration of 300 nM, and CMV-Probe at a concentration of 50 nM in a total volume of 12.5 μl and mixed with 12.5 μl of KAPA PROBE FAST qPCR Master Mix (KAPABiosystems, MA). The PCR cycling protocol was 95° C. for 10 min followed by 40 cycles of 95° C. for 30 sec and 58° C. for 60 sec. Human glyceraldehyde-3-phosphate dehydrogenase (GAPDH) was used as internal control. Oligonucleotides sequences for GAPDH and conditions were those previously reported by Rivera et al.44 For quantification, gene fragment from US28 and GAPDH were cloned into the pGEM-T Easy vector (Promega) and known concentrations of template were used to generate a standard curve in parallel for each experiment. All assays were performed in a C1000 Thermal Cycler apparatus (BioRad).

wild-type HAdV16 = assay: Virus yield reduction (burst assay, TCID50), HAdV16; format: cell-based; conditions: 50 μM, A549 cells, 48 h, yield with DMSO divided by yield with compound
Protocol: (§2) 1.8. Virus yield reduction. The effect of the active compounds on virus production was evaluated in a burst assay A549 cells were infected with wild-type HAdV5 or HAdV16 (MOI 100) in the presence or absence of 50 μM compounds. After 48 h, cells were harvested and subjected to three rounds of freeze/thaw. Serial dilutions of clarified lysates were titrated on A549 cells and TCID50 values were calculated using an endpoint dilution method.46

HAdV16-GFP = assay: Plaque assay, HAdV16-GFP in 293β5 cells; format: cell-based; conditions: for Selectivity Index (SI) HAdV16: ratio CC50 to IC50, HAdV16
Protocol: 1.5. Plaque assay. For low MOI infections, active compounds were further evaluated in a plaque assay. 293β5 cells were seeded in 6-well plates at 4×10^5 cells per well in duplicate for each condition. When cells reached 80-90% confluency, they were infected with HAdV5-GFP or HAdV16-GFP (0.06 vp/cell) and rocked for 2 h at 37° C. The inoculum was removed and the cells were washed once with PBS. The cells were then carefully overlaid with 4 ml/well of equal parts of 1.6% […] Difco Agar Noble (Becton, Dickinson & Co, Sparks, MD) and 2× EMEM (BioWhittaker) supplemented with 2x penicillin/streptomycin, 2× L-glutamine and 10% FBS. The mixture also contained compound in concentrations ranging from 5 to 1 μM. Following incubation for 7 days at 37° C., plates were scanned with a Typhoon 9410 imager (GE Healthcare Life Sciences), and plaques were quantified with ImageJ.43

wild-type HAdV5 = assay: Virus yield reduction (burst assay, TCID50), HAdV5; format: cell-based; conditions: for Virus yield reduction HAdV5: 50 μM, A549 cells, 48 h, yield with DMSO divided by yield with compound
Protocol: as §2

[3] = tested on: Acinetobacter baumannii strains resistant to colistine; assay: Screening of inhibition of bacterial growth at 50 μM; format: cell-based; conditions: 5×10^5 CFU/ml, 18 h
Procedure, shortened: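 Thirteen colistin-resistant A. baumannii clinical strains at 5×10^5 CFU/ml were each exposed to piperazine derivatives at a final 50 μM. Growth inhibition was assessed after 18 h incubation at 37 °C.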

HAdV5-GFP [4] = assay: Entry assay, HAdV5-GFP in A549 cells (GFP expression); format: cell-based
Protocol: 1.3. Entry assay. An initial rapid screening was performed using human A549 epithelial cells (3×10^5 cells/well in Corning black wall, clear bottom 96-well plates) infected with HAdV5-GFP (2,000 vp/cell) in the presence of 50 μM of the candidate antiviral compounds. Virus was preincubated with the compounds (individual and mixed) for 45 minutes at 4° C., and then added to cells. A standard infection curve was generated in parallel by infecting cells in the absence of compounds using serial two-fold dilutions of virus. All reactions were done in triplicate. Cells, virus and compounds were incubated for 48 h at 37° C. and 5% CO2. Infection, as measured by HAdV-mediated GFP expression, was analyzed using a Typhoon 9410 imager (GE Healthcare Life Sciences), and quantified with ImageQuantTL (GE Healthcare Life Sciences).

[5] = tested on: Acinetobacter baumannii strains resistant to colistine; assay: Minimal inhibitory concentration (MIC), microdilution in MHBII; format: cell-based; conditions: 5×10^5 CFU/ml, 18 h
Procedure, shortened: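 Colistin-resistant A. baumannii clinical strains in Mueller Hinton Broth II at 5×10^5 CFU/ml with piperazine derivatives from 50 μM down to 0.05 μM. Broth microdilution, 18 h at 37° C; tested only on compounds active in the prior screen.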

[6] = A549 cells, 48 h, read-out: CC50

| Compound | CC50 (A549 cells; [6]) [µM] | CC50 at 48 h [1] [µM] | Selectivity Index (SI) HAdV5 (HAdV5-GFP [2]) | IC50 (HAdV5-GFP [2]) [µM] | inhibition at 10 µM (HAdV5-GFP [2]) [%] | inhibition at 50 µM (HCMV (AD169)) [%] | Virus yield reduction HAdV16 (wild-type HAdV16) [fold] | IC50 (HAdV16-GFP) [µM] | Selectivity Index (SI) HAdV16 (HAdV16-GFP) | Virus yield reduction HAdV5 (wild-type HAdV5) [fold] | other results |
| --- | --- | --- | --- | --- | --- | --- | --- | --- | --- | --- | --- |
| N#Cc1ccc(NC(=O)N2CCN(C(=O)c3cc4ccccc4o3)CC2c2ccccc2)cc1 (stereo not shown) [Compound 63, 4-(Benzofuran-2-carbonyl)-1-[(4-cyanophenyl)aminocarbonyl]-2-phenylpiperazine] | 199.8 ± 0.26 | 199.8 ± 0.26 | 42.7 | 4.7 ± 0.11 | 96 to 100 | 99.9 ± 0.05 | 60.9 ± 12.5 | 3.9 ± 1.12 | 51.2 | 16.9 ± 5.2 | – |
| CC(C)(C)OC(=O)N1CCN(C(=O)Nc2ccc([N+](=O)[O-])cc2)C(c2ccccc2)C1 (stereo not shown) [Compound 46, 4-tert-Butoxycarbonyl-1-[(4-nitrophenyl)aminocarbonyl]-2-phenylpiperazine] | 161 ± 45.2 | 161 ± 45.2 | 47.3 | 3.4 ± 0.96 | 96 to 100 | 99.6 ± 0.39 | 265.5 ± 29.1 | 4.8 ± 1.24 | 33.6 | 211.7 ± 44.1 | – |
| O=C(c1cc2ccccc2o1)N1CCN(C(=O)Nc2ccc([N+](=O)[O-])cc2)C(c2ccccc2)C1 (stereo not shown) [Compound 59, 4-(Benzofuran-2-carbonyl)-1-[(4-nitrophenyl)aminocarbonyl]-2-phenylpiperazine] | – | 193.9 ± 1.68 | 93.5 | 2.1 ± 0.1 | 96 to 100 | 99.9 ± 0.06 | 34.6 ± 11.6 | 3.5 ± 1.03 | 55.4 | 35.7 ± 13.5 | – |
| CC1CN(C(=O)Cc2ccccc2)CCN1C(=S)Nc1cc(C(F)(F)F)cc(C(F)(F)F)c1 (stereo not shown) [Vip 634] | – | – | – | – | – | – | – | – | – | – | CC50 (A549 cells): 130 µM; Inhibition assay in plaque (HAdV5-GFP [2]): 99.50 ± 1.58; Screening, growth inhibition Ab 11 ([3]; strain Ab 11, 50 μM): <50 µM; Screening, growth inhibition Ab 14 ([3]; strain Ab 14, 50 μM): <50 µM; Screening, growth inhibition Ab 17 ([3]; strain Ab 17, 50 μM): <50 µM; Screening, growth inhibition Ab 21R ([3]; strain Ab 21R, 50 μM): <50 µM; Screening, growth inhibition Ab 24 ([3]; strain Ab 24, 50 μM): <50 µM; Starting Inhibition assay (HAdV5-GFP [4]): 94.46 ± 3.87; YIELD REDUCTION (wild-type HAdV5): 33.42 ± 10.16; CMI (MIC) Ab 11 ([5]; strain Ab 11, MHBII): 6.25 µM; CMI (MIC) Ab 14 ([5]; strain Ab 14, MHBII): 3.12 µM; CMI (MIC) Ab 17 ([5]; strain Ab 17, MHBII): 3.12 µM; CMI (MIC) Ab 21R ([5]; strain Ab 21R, MHBII): 3.12 µM; CMI (MIC) Ab 24 ([5]; strain Ab 24, MHBII): 6.25 µM |
| O=C(c1cc2ccccc2o1)N1CCN(C(=O)Nc2ccc(Cl)cc2)C(c2ccccc2)C1 (stereo not shown) [Compound 60, 4-(Benzofuran-2-carbonyl)-1-[(4-chlorophenyl)aminocarbonyl]-2-phenylpiperazine] | – | 194 ± 9.19 | 79 | 2.5 ± 1.17 | 96 to 100 | 98.2 ± 2.1 | 27.4 ± 16.9 | 3.4 ± 0.93 | 56.9 | 9.9 ± 3.4 | – |
